Measurements taken from PubChem BioAssay (NCI).
Several values for one entry are separate records, joined by “and”; a condition that tells them apart may be missing. Equal values may be shown once.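 Assay format: 96-well plates, 48-hour exposure. Abbreviation: GI50, concentration required for 50% inhibition of growth. TGI is the concentration that stops growth completely.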 Where a SMILES comes first, the peptide text is derived from it. The star is where a group is joined. Boc = CC(C)(C)OC(=O)*

system: NCI-H460 lung; test: growth of human tumour cells (NCI), 48 h

Row | SMILES | GI50 | TGI
1 | Cc1nc2cc(Nc3nc(Nc4ccc(F)cc4)nc(-c4cccs4)n3)ccc2n1Cc1ccccc1 | 3.78 µM | 20.4 µM
2 | Cn1cc(-c2csc(-c3c[nH]c4ccc(Br)cc34)n2)c2cnccc21 | 1.92 µM | 3.74 µM

system: A549 NSCLC; test: growth of human tumour cells (NCI), 48 h

Row | SMILES | GI50 | TGI
3 | Cn1c(Nc2ccc(C(F)(F)F)cc2)nc2cc(Oc3ccnc(-c4ncc(C(F)(F)F)[nH]4)c3)ccc21 | 0.231 µM | 11.7 µM
4 | COc1ccc(-c2nsc3c2NC(=O)CC3c2cccc(OC)c2)cc1 (configuration not stated) | 0.714 µM | > 100 µM
5 | C[C@@]12CCC[C@@](C)(C(=O)O)C1CC[C@]13CC(=O)[C@](CO)(C1)[C@@H](O)CC32 (some centres not stated) | > 100 µM | > 100 µM
6 | O=[N+]([O-])c1ccc(CI)cc1 | 3.68 µM | 14.5 µM
7 | CN(C)C/C=C/C(=O)Nc1cc2c(Nc3ccc(F)c(Cl)c3)ncnc2cc1O[C@H]1CCOC1 | 1.48 µM and 1.6 µM | 7.55 µM and > 10 µM
8 | COc1cc(/C=C/C(=O)c2cccc(-n3cc(-c4ccc(Cl)cc4)[nH]c3=O)c2)ccc1O | 4.67 µM | > 37.7 µM
9 | CCN(Cc1ccc(F)cc1)c1ccc(CO)c(Br)c1 | 0.614 µM | 21.3 µM
10 | Cc1ccc2c(C3C(C#N)=C(N)Oc4cc5ccccc5cc43)cc(=O)oc2c1 (configuration not stated) | 2.95 µM | > 100 µM
11 | COC(=O)c1cc2c(s1)-c1nccc3c1c(nc1ccccc13)C2=O | > 100 µM | > 100 µM
12 | COc1ccc(-c2cc(/C=C/C(=O)c3ccc(OC)c(OC)c3)[nH]n2)cc1 | 1.88 µM | 5.95 µM
13 | Oc1ccc(Nc2c3ccccc3nc3occ(Cl)c23)cc1 | 3.3 µM | 32.2 µM
14 | O=C(Nc1cc(C(F)(F)F)ccc1Cl)c1cccc(NC2=C(Cl)C(=O)N(Cc3ccccc3)C2=O)c1 | 72.8 µM | > 100 µM
15 | CC1(Br)Cc2ccccc2C1=O (configuration not stated) |  | 32.4 µM
16 | COc1ccc2c(c1)c[n+](C)c1c3cc(OC)c(OC)cc3ccc21 |  | 10.3 µM
17 | CCOC(=O)/C=C/c1ccc(C#Cc2ccccc2)cc1 | 72.2 µM | > 100 µM
18 | C[C@H]1CN[C@@H]2[C@@H](C)[C@H]3[C@@H](C[C@H]4[C@@H]5CC[C@H]6C[C@@H](N)CC[C@]6(C)[C@H]5CC[C@]34C)O[C@@]2(O)C1 |  | 17.3 µM
19 | O=C1c2cc3c(cc2-c2c1c1cc(Cl)c(Cl)cc1c(=O)n2C[C@H](O)CO)OCO3 | < 0.01 µM | 0.253 µM
20 | COc1ccc(/C(=C\C=C(C#N)C#N)Sc2nc3ccccc3s2)cc1 | 15.5 µM | > 50 µM
21 | CC(C)OC(=O)[C@H](C)NP(=O)(OC[C@H]1O[C@@H](n2ccc(=O)[nH]c2=O)[C@](C)(F)[C@@H]1O)Oc1ccccc1 (some centres not stated) | > 100 µM | > 100 µM
22 | O=C(O)c1ccc(C(=O)O)c2c(C(=O)O)ccc(C(=O)O)c12 |  | > 100 µM
23 | S=c1[nH]c2c(Cl)c(Cl)c(Cl)c(Cl)c2[nH]1 |  | > 100 µM
24 | O=C(/C=C/C=C/c1ccccc1)c1ccccc1 |  | 42.7 µM
25 | O=C(Nc1ccc(Cl)c(C(F)(F)F)c1)c1ccc(NC2=C(Cl)C(=O)N(Cc3ccccc3)C2=O)cc1 | 17 µM | 34.8 µM
26 | COC(=O)C(C)NC(=O)C(CCSC)NC(=O)C(Cc1ccccc1)NC(=O)OC(C)(C)C (stereo not drawn) (Boc-Phe-Met-Ala-OMe; configuration not given here) | 35.7 µg/mL | > 100 µM
27 | Cc1nc2cc(Nc3nc(Nc4ccc(F)cc4)nc(-c4cccs4)n3)ccc2n1Cc1ccccc1 | 2.98 µM | 15.1 µM
28 | Oc1ccc2ccccc2c1N=Nc1ccc(Br)cc1 |  | > 100 µM
29 | Cn1cc(-c2csc(-c3c[nH]c4ccc(Br)cc34)n2)c2cnccc21 | 2.81 µM | 11.5 µM

system: CAKI-1 renal; test: growth of human tumour cells (NCI), 48 h

Row | SMILES | GI50 | TGI
30 | Cn1c(Nc2ccc(C(F)(F)F)cc2)nc2cc(Oc3ccnc(-c4ncc(C(F)(F)F)[nH]4)c3)ccc21 | 0.0609 µM | 15.4 µM
31 | COc1ccc(-c2nsc3c2NC(=O)CC3c2cccc(OC)c2)cc1 (configuration not stated) | 1.38 µM | > 100 µM
32 | C[C@@]12CCC[C@@](C)(C(=O)O)C1CC[C@]13CC(=O)[C@](CO)(C1)[C@@H](O)CC32 (some centres not stated) | > 100 µM | > 100 µM
33 | O=[N+]([O-])c1ccc(CI)cc1 | 1.91 µM | 3.98 µM
34 | CN(C)C/C=C/C(=O)Nc1cc2c(Nc3ccc(F)c(Cl)c3)ncnc2cc1O[C@H]1CCOC1 | 0.0407 µM and 0.208 µM | 8.39 µM and > 10 µM
35 | COc1cc(/C=C/C(=O)c2cccc(-n3cc(-c4ccc(Cl)cc4)[nH]c3=O)c2)ccc1O | 5.02 µM | 44.9 µM
36 | CCN(Cc1ccc(F)cc1)c1ccc(CO)c(Br)c1 | 1.02 µM | 15.1 µM
37 | COC(=O)c1cc2c(s1)-c1nccc3c1c(nc1ccccc13)C2=O | > 100 µM | > 100 µM
38 | COc1ccc(-c2cc(/C=C/C(=O)c3ccc(OC)c(OC)c3)[nH]n2)cc1 | 1.55 µM | 3.52 µM
39 | Oc1ccc(Nc2c3ccccc3nc3occ(Cl)c23)cc1 | 3.95 µM | > 100 µM
40 | O=C(Nc1cc(C(F)(F)F)ccc1Cl)c1cccc(NC2=C(Cl)C(=O)N(Cc3ccccc3)C2=O)c1 | 89.3 µM | > 100 µM
41 | CC1(Br)Cc2ccccc2C1=O (configuration not stated) | 1.75 µM | 3.86 µM
42 | COc1ccc2c(c1)c[n+](C)c1c3cc(OC)c(OC)cc3ccc21 |  | 32.2 µM and 44 µM
43 | CCOC(=O)/C=C/c1ccc(C#Cc2ccccc2)cc1 | > 100 µM | > 100 µM
44 | C[C@H]1CN[C@@H]2[C@@H](C)[C@H]3[C@@H](C[C@H]4[C@@H]5CC[C@H]6C[C@@H](N)CC[C@]6(C)[C@H]5CC[C@]34C)O[C@@]2(O)C1 |  | 6.43 µM
45 | COc1ccc(/C(=C\C=C(C#N)C#N)Sc2nc3ccccc3s2)cc1 | 15.8 µM | > 50 µM
46 | O=C(O)c1ccc(C(=O)O)c2c(C(=O)O)ccc(C(=O)O)c12 |  | > 100 µM
47 | S=c1[nH]c2c(Cl)c(Cl)c(Cl)c(Cl)c2[nH]1 |  | 64.7 µM
48 | O=C(/C=C/C=C/c1ccccc1)c1ccccc1 |  | 31.4 µM
49 | O=C(Nc1ccc(Cl)c(C(F)(F)F)c1)c1ccc(NC2=C(Cl)C(=O)N(Cc3ccccc3)C2=O)cc1 | 19.4 µM | 38.6 µM
50 | COC(=O)C(C)NC(=O)C(CCSC)NC(=O)C(Cc1ccccc1)NC(=O)OC(C)(C)C (stereo not drawn) (Boc-Phe-Met-Ala-OMe; configuration not given here) |  | > 100 µM
51 | Cc1nc2cc(Nc3nc(Nc4ccc(F)cc4)nc(-c4cccs4)n3)ccc2n1Cc1ccccc1 | 5.45 µM | > 100 µM
52 | Oc1ccc2ccccc2c1N=Nc1ccc(Br)cc1 |  | > 100 µM

system: RXF 393 renal; test: growth of human tumour cells (NCI), 48 h

Row | SMILES | GI50 | TGI
53 | Cn1c(Nc2ccc(C(F)(F)F)cc2)nc2cc(Oc3ccnc(-c4ncc(C(F)(F)F)[nH]4)c3)ccc21 | 0.0544 µM | 7.32 µM
54 | COc1ccc(-c2nsc3c2NC(=O)CC3c2cccc(OC)c2)cc1 (configuration not stated) | 2.29 µM | 8.95 µM
55 | C[C@@]12CCC[C@@](C)(C(=O)O)C1CC[C@]13CC(=O)[C@](CO)(C1)[C@@H](O)CC32 (some centres not stated) | > 100 µM | > 100 µM
56 | O=[N+]([O-])c1ccc(CI)cc1 | 2.44 µM | 8.74 µM
57 | CN(C)C/C=C/C(=O)Nc1cc2c(Nc3ccc(F)c(Cl)c3)ncnc2cc1O[C@H]1CCOC1 | 1.17 µM and 0.514 µM | 6.79 µM and 4.13 µM
58 | COc1cc(/C=C/C(=O)c2cccc(-n3cc(-c4ccc(Cl)cc4)[nH]c3=O)c2)ccc1O | 2.99 µM | 9.13 µM
59 | CCN(Cc1ccc(F)cc1)c1ccc(CO)c(Br)c1 | 1.4 µM | 16.1 µM
60 | Cc1ccc2c(C3C(C#N)=C(N)Oc4cc5ccccc5cc43)cc(=O)oc2c1 (configuration not stated) | 0.671 µM | 6.11 µM
61 | COC(=O)c1cc2c(s1)-c1nccc3c1c(nc1ccccc13)C2=O | 29.8 µM | > 100 µM
62 | COc1ccc(-c2cc(/C=C/C(=O)c3ccc(OC)c(OC)c3)[nH]n2)cc1 | 1.39 µM | 2.94 µM
63 | Oc1ccc(Nc2c3ccccc3nc3occ(Cl)c23)cc1 | 3.83 µM | 70.3 µM
